The source of these data is patent US12349708B2, “Use and methods of 1,3-propanediol to improve taste and/or off-taste qualities” (Primient Covation LLC, priority 2019, dated 2025).

Each structure is given as a SMILES string. “Also recorded” adds a separate entry of the source. Structures can show the parent of a compound that is named as a salt.

In test [1] the test system is experienced and trained panelist. The test can be described thus: Sensorial description of energy drinks and additive solutions with propylene glycol or biologically-produced 1,3-propanediol (multi-sip-and-swallow taste method).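 For all read-outs here: propylene glycol or 1,3-propanediol added at 0.01, 0.1 or 1.0%, tasted by multi-sip-and-swallow in duplicate, compared with matching controls lacking either additive.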 As to conditions: for Sensorial Description: RT.
The conditions of test [2]: 0.05% in black tea; U.S. Pat. No. 8,685,436; cited from earlier work.

For `CC(O)CO` (stereo not drawn) [PG, propylene glycol, reference compound], the “Sensorial Description” value in test [1] (0.01% PG or PDO in 238 ppm sucralose (10% SE) in distilled water) was 6-7% SE, significantly less sweet; in test [1] (0.01% PG or PDO in 338 ppm caffeine in distilled water (caffeine drink)) it was “Looked similar to Control #72”; in test [1] (0.01% PG or PDO in 3,338 ppm caffeine in distilled water (caffeine shot)), “(small sip): similar to Control #65”; in test [1] (0.01% PG or PDO in 10,500 ppm malic acid and 2,000 ppm sucralose in distilled water) it was “Less sweetness and sourness intensities (different”; in test [1] (0.01% PG or PDO in Bang energy drink) it was “Significantly less sweet and its lingering but still”; in test [1] (0.01% PG or PDO in Berry flavor in distilled water) it was “Less dry than Control #114, slight less flavor”. The “Sensorial Description” value in test [1] (0.01% PG or PDO in Monster Energy Zero Ultra) was “Significant less off-taste, less sourness, significantly”; in test [1] (0.01% PG or PDO in Monster Energy drink), “Note: Loss of carbonation. Significantly less”; in test [1] (0.01% PG or PDO in NOS High Performance Energy Drink), “Significantly less sourness and flavor, less sweet”; in test [1] (0.01% PG or PDO in Orange 5-hour ENERGY shot (5HE Orange)), “Significantly less flavor and bitterness, still strong”; in test [1] (0.01% PG or PDO in Red Bull Energy Drink), “Much better taste quality overall significantly less”; in test [1] (0.01% PG or PDO in Red Bull Sugar Free), “Significantly less off-tastes, still different off-taste”. The “Sensorial Description” value in test [1] (0.01% PG or PDO in Rockstar Original energy drink) was “Clearer off-flavor than sweet/sour, less sourness but”; in test [1] (0.1% PG or PDO in 238 ppm sucralose (10% SE) in distilled water), ~5-6% SE, slightly less sweetness; in test [1] (0.1% PG or PDO in 2,000 ppm sucralose in distilled water), “(small sip): Less overall sweet quality including 2nd”; in test [1] (0.1% PG or PDO in 3,338 ppm caffeine in distilled water (caffeine shot)), “(small sip): similar to Control #65”; in test [1] (0.1% PG or PDO in Berry 5-hour ENERGY shot (5HE Berry)) it was “Significantly less sweet and aftertaste and sweet”; in test [1] (0.1% PG or PDO in Berry flavor in distilled water), “Less dry than 0.01% PG, slight less flavor”. The “Sensorial Description” value in test [1] (0.1% PG or PDO in Monster Energy Zero Ultra) is “More smooth tasting quality, less sourness, no bitter,”; in test [1] (0.1% PG or PDO in Monster Energy drink), “Note: Loss of carbonation. Similar carbonic acid off-”; in test [1] (0.1% PG or PDO in NOS High Performance Energy Drink), “No bitterness, smoother, still flavor and sweet, less”; in test [1] (0.1% PG or PDO in Orange 5-hour ENERGY shot (5HE Orange)), “Less flavor, no bitterness, still strong sourness but less”; in test [1] (0.1% PG or PDO in Red Bull Energy Drink), “Note: Loss of carbonation. Medium flavor level, less”; in test [1] (0.1% PG or PDO in Red Bull Sugar Free), “Flatter, smoothness, still different off-taste as 0.01%”. The “Sensorial Description” value in test [1] (1.0% PG or PDO in 79 ppm sucralose (5% SE) in distilled water) is “Weak PG taste note, similar sweet quality”; in test [1] (1.0% PG or PDO in 238 ppm sucralose (10% SE) in distilled water), “Slight PG taste, sweet smoother”; in test [1] (1.0% PG or PDO in 338 ppm caffeine in distilled water (caffeine drink)), “Worst quality, more bitterness, medium intensity,”; in test [1] (1.0% PG or PDO in 2,000 ppm sucralose in distilled water), “(small sip): Similar to 0.1% PG. Repeated tests”; in test [1] (1.0% PG or PDO in 3,338 ppm caffeine in distilled water (caffeine shot)) it was “(small sip): similar to Control #65, no PG taste”; in test [1] (1.0% PG or PDO in 10,500 ppm malic acid and 2,000 ppm sucralose in distilled water), “PF taste note, similar qualities as 0.1% PG”. Also, the “Sensorial Description” value in test [1] (1.0% PG or PDO in 10,500 ppm malic acid, 2,000 ppm sucralose, 3,338 ppm caffeine in distilled water) is listed as “Stronger, thinner sourness quality”; in test [1] (1.0% PG or PDO in B vitamins at 5-hour Energy shot concentrations in distilled water) it was “PG flavor taste, similar other qualities as Control”; in test [1] (1.0% PG or PDO in Berry 5-hour ENERGY shot (5HE Berry)) it was “Began to show more sourness across the taste, still”; in test [1] (1.0% PG or PDO in Berry flavor in distilled water), “Less dry than Control #114, slight less flavor”; in test [1] (1.0% PG or PDO in Monster Energy Zero Ultra), “Very smooth, flat tasting quality of basic tastes, no”; in test [1] (1.0% PG or PDO in Monster Energy drink), “Note: Little carbonation. Little or no sourness, very”. Also, the “Sensorial Description” value is “Smoother than 0.1% PG, low-medium flavor, low” in test [1] (1.0% PG or PDO in NOS High Performance Energy Drink); “Less flavor, sourness and sweetness, still moderate” in test [1] (1.0% PG or PDO in Orange 5-hour ENERGY shot (5HE Orange)); “Note: significantly less or no carbonation. Low” in test [1] (1.0% PG or PDO in Red Bull Energy Drink); “Medium off-flavor (not described) in middle tasting” in test [1] (1.0% PG or PDO in Red Bull Sugar Free); “Slight off-flavor (seems like PDO's off flavor), little” in test [1] (1.0% PG or PDO in Rockstar Original energy drink). The “reduction of sweetness and lingering at 1st half of the taste time” value in test [1] (0.01% in 2,000 ppm sucralose in distilled water) is “lingering, ~40% less at 1st half of the taste time,”. Further, in test [1] (0.1% in 2,000 ppm sucralose in distilled water), the “reduction of overall sweet quality” value is reported as “half of tasting time, ~10-20% less than 0.01% PG,”. Also, in test [1] (2,000 ppm, 238 ppm, or 70 ppm sucralose in distilled water), the “reduction in unpleasant taste or masking of off-taste” value was “No reduction in unpleasant taste, or masking of off-taste”. In addition, the “reduction of unpleasant taste / masking of bitterness” value in test [1] (3,382 ppm or 338 ppm caffeine in distilled water) is “did not reduce the unpleasant taste, or mask the bitterness”. For the same molecule, the “taste modulation of B vitamins” value in test [1] (aqueous B vitamins at concentrations comparable to 5-hour ENERGY shots) is reported as “did not positively modulate”. The “modulation of berry flavor” value in test [1] (berry flavor in distilled water) is “Neither biologically-produced 1,3-propanediol, nor propylene glycol modulated the flavor”. In test [1] (malic acid at 10,500 ppm in distilled water), the “taste modulation or sour masking” value was “no positive taste modulation or sour masking effect”. Also, the “taste modulation of single additive solutions” value in test [1] (separate caffeine, malic acid, and sucralose solutions at mega-dose levels) is “did not positively modulate the taste or mask the bitter, off, or sour tastes; also recorded: neither propylene glycol, nor biologically-produced 1,3-propanediol modulated the taste”.

Regarding `O=C(O)CC(O)C(=O)O` (stereo not drawn) [malic acid], the “Sensorial Description” value in test [1] (control: 10,500 ppm malic acid in distilled water, no PG or PDO) was “Extreme sourness, clean sourness quality, slightly dry”.

In the case of `COc1cc([C@@H]2CC(=O)c3c(O)cc(O)cc3O2)ccc1O` [homoeriodictyol disodium salt], in test [2], the perceived bitterness entry was “reduced the perceived bitterness”.

With `OC[C@H]1O[C@H](O[C@]2(CCl)O[C@H](CCl)[C@@H](O)[C@@H]2O)[C@H](O)[C@@H](O)[C@H]1Cl` [sucralose], the “Sensorial Description” value in test [1] (control: 79 ppm sucralose in distilled water, no PG or PDO) is given as “Comfortably 5% SE sweet, good sweet quality”; in test [1] (control: 238 ppm sucralose in distilled water, no PG or PDO), 10% SE, delayed onset of sweetness, very sweet; in test [1] (control: 2,000 ppm sucralose in distilled water, no PG or PDO), “(small sip): Extremely sweet, extremely strong sweet”.
